{"source": "PubChem BioAssay AID179", "about": "(DTP/NCI, 2004)", "tested_on": "CEM cells HIV-1 protection, formazan growth assay", "assay": "NCI AIDS Antiviral Assay", "details": "for pIC50: measured here: growth of uninfected CEM cells", "summary_of_the_method": "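Screen of anti-HIV-1 activity in human CEM cells using a formazan-based growth measurement at five drug concentrations. Hits with 50% or greater protection were repeated, and confirmation required reproducible complete protection.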", "note": "pEC50, pIC50: −log10 of the molar value. Activity calls are given as the source filed them.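 Rule for the calls: active = compounds giving half or more protection of infected cells from virus-caused growth loss, again on retest; inactive = the rest.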", "data": [{"smiles": "O=C(OCC1CO1)c1cccs1", "note": "(centres undefined)", "values": [{"measurement": "outcome", "value": "inactive"}]}, {"smiles": "COc1ccc2c(c1)OCC1Cc3cccc(OC)c3OC21", "note": "(centres undefined)", "values": [{"measurement": "pEC50", "value": "< 3.70"}, {"measurement": "pIC50", "value": 4.35}]}, {"smiles": "COC1OC2COC(c3ccccc3)OC2C2N=C(N)N([N+](=O)[O-])C12OS(C)(=O)=O", "note": "(centres undefined)", "values": [{"measurement": "outcome", "value": "inactive"}]}, {"smiles": "CC1=NN(C(=O)c2ccccc2O)C(=O)/C1=C/c1ccccc1O", "values": [{"measurement": "pEC50", "value": "< 4.51"}, {"measurement": "pIC50", "value": 7.21}]}, {"smiles": "CCCCCCCCCCCO/N=C\\c1c2c(O)c3c(O)c(C)c4c(c3c1O)C(=O)C(C)(O/C=C\\C(OC)C(C)C(OC(C)=O)C(C)C(O)C(C)C(O)C(C)/C=C\\C=C(\\C)C(=O)N2)O4", "note": "(centres undefined)", "values": [{"measurement": "pEC50", "value": "< 3.70"}, {"measurement": "pIC50", "value": 5.52}]}, {"smiles": "Cc1cn2c(=O)c3ccccc3nc2s1", "values": [{"measurement": "pEC50", "value": "< 5.32"}, {"measurement": "pIC50", "value": "< 5.32"}]}, {"smiles": "COc1ccc(-c2c3ccccc3c(-c3ccc(OC)cc3)c3ccccc23)cc1", "values": [{"measurement": "pEC50", "value": "< 5.57"}, {"measurement": "pIC50", "value": "< 5.57"}]}, {"smiles": "O=C(NCCCN(CCCCN(CCCNC(=O)C(F)(F)F)CCCc1ccccc1)CCCc1ccccc1)C(F)(F)F", "values": [{"measurement": "pEC50", "value": "< 3.70"}, {"measurement": "pIC50", "value": 5.01}]}, {"smiles": "COc1cccc(/C=C\\c2ccc(O)cc2)c1", "values": [{"measurement": "pEC50", "value": "< 3.70"}, {"measurement": "pIC50", "value": 5.37}]}, {"smiles": "CCOC(=O)c1oc2c(OC)ccc3c2c1CCC3", "values": [{"measurement": "outcome", "value": "inactive"}]}, {"smiles": "CO/N=C(\\C(=O)OC(=NC1CCCCC1)NC1CCCCC1)c1csc(NC(c2ccccc2)(c2ccccc2)c2ccccc2)n1", "values": [{"measurement": "pEC50", "value": "< 3.70"}, {"measurement": "pIC50", "value": 4.28}]}, {"smiles": "C[C@]12CCC(=O)C=C1CC[C@@H]1C2CC[C@]2(C)Nc3c(cnn3-c3ccccc3)CC12", "note": "(some centres undefined)", "values": [{"measurement": "outcome", "value": "inactive"}]}, {"smiles": "O=c1ccn(C2CC(O)C(CO)O2)c(=O)[nH]1", "note": "(centres undefined)", "values": [{"measurement": "pEC50", "value": "< 3.23"}, {"measurement": "pIC50", "value": 3.51}]}, {"smiles": "CC(C)OC(=O)/C=C/C(=O)O/C=C/[N+](=O)[O-]", "values": [{"measurement": "pEC50", "value": "< 3.70"}, {"measurement": "pIC50", "value": 3.98}]}, {"smiles": "CC(=O)c1nc2ccccc2n1CC(=O)c1ccc(Cl)cc1", "values": [{"measurement": "pEC50", "value": "< 3.70"}, {"measurement": "pIC50", "value": 5.87}]}, {"smiles": "NCC1Nc2ccccc2[C@@H](O)C1O", "note": "(some centres undefined)", "values": [{"measurement": "pEC50", "value": "< 3.03"}, {"measurement": "pIC50", "value": "< 3.03"}]}, {"smiles": "CCOC(=O)c1cc(C)nc2c1c(=O)n(-c1ccccc1)c(=O)n2CCCCN1CCN(c2ccccc2)CC1", "values": [{"measurement": "pEC50", "value": "< 3.70"}, {"measurement": "pIC50", "value": "< 3.70"}]}, {"smiles": "O=c1[nH]c(=O)n(C2CC(F)C(CO)O2)cc1C(OCC(F)(F)F)OCC(F)(F)F", "note": "(centres undefined)", "values": [{"measurement": "pEC50", "value": 4.43}, {"measurement": "pIC50", "value": 3.71}]}, {"smiles": "Cc1cc(N=Nc2ccc(Sc3ccc(N=Nc4ccc(O)c(C(=O)O)c4)cc3)cc2)c(N)c(N=Nc2ccc(C(=O)O)cc2)c1N", "values": [{"measurement": "pEC50", "value": "< 3.70"}, {"measurement": "pIC50", "value": 4.56}]}, {"smiles": "C=C1[C@@H](OC(C)=O)C[C@@H]2C[C@]3(C)C(OC(C)=O)CC(C)(C)[C@@H]3C12O", "note": "(some centres undefined)", "values": [{"measurement": "pEC50", "value": "< 3.69"}, {"measurement": "pIC50", "value": "< 3.69"}]}, {"smiles": "CCOC(=O)CN1C(=O)C(=O)c2ccccc21", "values": [{"measurement": "pEC50", "value": "< 3.70"}, {"measurement": "pIC50", "value": 4.47}]}, {"smiles": "COc1ccccc1NC(=S)N/C=C(\\C#N)S(=O)(=O)c1ccc(C)cc1", "values": [{"measurement": "pEC50", "value": "< 3.70"}, {"measurement": "pIC50", "value": "< 3.70"}]}, {"smiles": "CCCCC(O)(Cc1ccccc1)c1ccc(OCCN(CC)CC)cc1", "note": "(centres undefined)", "values": [{"measurement": "pEC50", "value": "< 3.70"}, {"measurement": "pIC50", "value": 4.85}]}, {"smiles": "Cc1oc2ccccc2c(=O)c1CN1CCN(c2ccccn2)CC1", "values": [{"measurement": "pEC50", "value": "< 3.67"}, {"measurement": "pIC50", "value": 3.89}]}, {"smiles": "CCOC(=O)/C(=C\\c1cccc(F)c1)P(=O)(OCC)OCC", "values": [{"measurement": "pEC50", "value": "< 4.24"}, {"measurement": "pIC50", "value": 4.99}]}, {"smiles": "C#CC(O)/C=C/C(O)CCCC(O)CC#CC(O)C#CCCCCC(O)/C=C/CCCC(=O)CCCCCCCCCCCCCCCC(O)C(O)C#CC(=O)O", "note": "(centres undefined)", "values": [{"measurement": "pEC50", "value": "< 4.30"}, {"measurement": "pIC50", "value": 4.55}]}, {"smiles": "Clc1cc2c(c3ncccc13)OCN(CCc1ccccc1)C2", "values": [{"measurement": "pEC50", "value": "< 3.70"}, {"measurement": "pIC50", "value": 6.02}]}, {"smiles": "O=C1NC(O)c2cccc([N+](=O)[O-])c2O1", "note": "(centres undefined)", "values": [{"measurement": "pEC50", "value": "< 3.70"}, {"measurement": "pIC50", "value": 4.21}]}, {"smiles": "N#Cc1cc([N+](=O)[O-])ccc1NC(=O)C(F)(F)F", "values": [{"measurement": "pEC50", "value": "< 4.00"}, {"measurement": "pIC50", "value": 4.05}]}, {"smiles": "CSC(=NC(=O)c1ccccc1Cl)SCCSC(=NC(=O)c1ccccc1Cl)SC", "values": [{"measurement": "pEC50", "value": "< 3.46"}, {"measurement": "pIC50", "value": "< 3.46"}]}, {"smiles": "CCOC(=O)[C@@]12C(C)=CC(=O)O[C@]1(C)C1C(=O)NC(=O)C12", "note": "(some centres undefined)", "values": [{"measurement": "pEC50", "value": "< 3.07"}, {"measurement": "pIC50", "value": "< 3.07"}]}, {"smiles": "O=c1c2ncn(C3CCCCO3)c2n(-c2ccccc2)c(=S)n1-c1ccccc1", "note": "(centres undefined)", "values": [{"measurement": "outcome", "value": "inactive"}]}, {"smiles": "CC1(C)OCN(c2ccc(Cl)cc2)Cn2c1nc1ccccc12", "values": [{"measurement": "pEC50", "value": "< 3.70"}, {"measurement": "pIC50", "value": 4.54}]}, {"smiles": "O=S(=O)(O)CCCCCO", "values": [{"measurement": "pEC50", "value": "< 3.70"}, {"measurement": "pIC50", "value": "< 3.70"}]}, {"smiles": "CC1=C2CC(C)(C)/C=C\\C(=O)/C(C)=C\\C3=C[C@H](C)C[C@]3(O2)C1=O", "values": [{"measurement": "pEC50", "value": "< 6.70"}, {"measurement": "pIC50", "value": 7.02}]}, {"smiles": "CCOc1csc([C@H]2CCC3[C@@H]4CC=C5C[C@@H](OC(C)=O)CC[C@]5(C)C4CC[C@@]32C)n1", "note": "(some centres undefined)", "values": [{"measurement": "pEC50", "value": "< 4.25"}, {"measurement": "pIC50", "value": "< 4.25"}]}, {"smiles": "COc1ccc(OC)c(/C=C/c2ccnc3ccccc23)c1", "values": [{"measurement": "pEC50", "value": 7.20}, {"measurement": "pIC50", "value": 5.89}]}, {"smiles": "C/C(=N/NC(=S)Nc1ccccc1Cl)c1ccccn1", "values": [{"measurement": "pEC50", "value": "< 6.70"}, {"measurement": "pIC50", "value": 7.43}]}, {"smiles": "[O-][n+]1c(-c2ccccc2)c2nc3ccccc3nc2c2ccccc21", "values": [{"measurement": "pEC50", "value": "< 4.40"}, {"measurement": "pIC50", "value": "< 4.40"}]}, {"smiles": "CCCCCCCSCc1nc2ccccc2c(C)[n+]1[O-]", "values": [{"measurement": "pEC50", "value": "< 4.18"}, {"measurement": "pIC50", "value": 4.30}]}, {"smiles": "Cc1cc(NS(=O)(=O)c2ccc(Nc3c4ccccc4nc4c(C(=O)NC(CO)(CO)CO)cccc34)cc2)no1", "values": [{"measurement": "pEC50", "value": "< 3.70"}, {"measurement": "pIC50", "value": 4.95}]}, {"smiles": "COc1cccc(C2NC(=O)N3C(c4cccc(OC)c4)NC(=O)N23)c1", "note": "(centres undefined)", "values": [{"measurement": "pEC50", "value": "< 3.70"}, {"measurement": "pIC50", "value": 4.05}]}, {"smiles": "NC(CCC(=O)O)(CCC(=O)O)CCC(=O)O", "values": [{"measurement": "outcome", "value": "inactive"}]}, {"smiles": "Cc1ccc(C(=O)Nc2ccc(S(=O)(=O)O)c3cc(S(=O)(=O)O)cc(S(=O)(=O)O)c23)cc1N", "values": [{"measurement": "pEC50", "value": "< 3.70"}, {"measurement": "pIC50", "value": "< 3.70"}]}, {"smiles": "Nc1ccc2oc3cccnc3c2c1", "values": [{"measurement": "pEC50", "value": "< 3.01"}, {"measurement": "pIC50", "value": 3.43}]}]}
